Test results: ChEMBL document CHEMBL1157727, “Novel small molecule bradykinin B1 receptor antagonists. Part 1: benzamides and semicarbazides” (Bioorg Med Chem Lett, 2010)
In brackets after ≈: the same amount, converted by molar mass.

Key:
in vitro [1] = conditions: human, microsomes
physchem = conditions: buffer
in vitro [2] = conditions: rat, microsomes
in vivo [3] = conditions: Wistar, rat, iv, 1 mg/kg
in vivo [4] = conditions: Wistar, rat, 1 mg/kg
in vivo [5] = conditions: Wistar, rat, po, 1 mg/kg

| Compound | remaining at 1 h (in vitro [1]) [%] | solubility (physchem) [µM] | remaining at 1 h (in vitro [2]) [%] | clearance (in vivo [3]) [mL/min/kg] | half-life (in vivo [4]) [min] | bioavailability (in vivo [5]) [%] |
| --- | --- | --- | --- | --- | --- | --- |
| C[C@@H]1CC[C@H](C)N1C(=O)c1ccc([C@@H](C)NC(=O)C2(NC(=O)c3cc(F)cc(C(F)(F)F)c3)CC2)c(F)c1 | 9 | 42 (≈ 22.6 µg/mL) | 45 |  |  |  |
| CCN(NC(=O)C(F)(F)F)C(=O)N[C@H](C)c1ncc(-c2cc(Cl)cc(Cl)c2OCC(F)F)cc1F |  |  |  | 7 | 135 | > 44 |
